Laboratory results as given in US6689779B2, “Oxazolidinone derivatives and a process for the preparation thereof” (priority 2000, dated 2004).
≈ marks a conversion by molar mass, not a printed value.

Assays:
Assay type in all cases: cell-based
[1] = test system: vancomycin resistant Enterococci; assay: Assay for in vitro antibacterial activity, agar dilution method: VRE; conditions: for Antibacterial Activity (MIC50) VRE: agar dilution method, vancomycin resistant Enterococci
[2] = test system: methicillin resistant Staphylococcus aureus; assay: Assay for in vitro antibacterial activity, agar dilution method: MRSA; conditions: for Antibacterial Activity (MIC50) MRSA: agar dilution method, methicillin resistant Staphylococcus aureus
[3] = test system: ATCC 27294: Vancomycine Mycobacterium tuberculosis; assay: Assay for in vitro antibacterial activity, agar dilution method: ATCC 27294; conditions: for Antibacterial Activity (MIC50) ATCC 27294: agar dilution method, Vancomycine Mycobacterium tuberculosis; for MIC50: Mycobacterium tuberculosis, ATCC27294, read-out: Antibacterial Activity (MIC50) ATCC 27294
[4] = test system: H. Influenzae; assay: Assay for in vitro antibacterial activity, agar dilution method: H. Influenzae

Structure (SMILES): CC(=O)NC[C@H]1CN(c2ccc(-c3ccc(-n4cncn4)nc3)c(F)c2)C(=O)O1 [Exmp. 129, (S)-[N-3-(4-(2-(1,2,4-triazol-1-yl)pyridin-5-yl)-3-fluorophenyl)-2-oxo-5-oxazolidinyl]methyl acetamide]
- Antibacterial Activity (MIC50) VRE [1]: 0.2 µg/mL
- Antibacterial Activity (MIC50) MRSA [2]: 0.39 µg/mL
- Antibacterial Activity (MIC50) ATCC 27294 [3]: 0.1 µg/mL
- Antibacterial Activity (MIC50) Influenzae [4]: 6.25 µg/mL

Structure (SMILES): N[C@@H]1CON=C1O [Cycloserine, reference compound]
- MIC50 [3]: 6.25 µg/mL (≈ 61.2 µM)

Structure (SMILES): CC(=O)NC[C@H]1CN(c2ccc(-c3ccc(-c4nnn[nH]4)nc3)c(F)c2)C(=O)O1 [Exmp. 152, (S)-[N-3-(4-(2-(5-Tetrazolyl)-5-pyridinyl)-3-fluorophenyl)-2-oxo-5-oxazolidinyl]methyl Acetamide]
- Antibacterial Activity (MIC50) VRE [1]: >25 µg/mL
- Antibacterial Activity (MIC50) MRSA [2]: >25 µg/mL
- Antibacterial Activity (MIC50) ATCC 27294 [3]: >25 µg/mL
- Antibacterial Activity (MIC50) Influenzae [4]: >25 µg/mL

Structure (SMILES): CC(=O)NC[C@H]1CN(c2ccc(-c3ccc(-c4nnc(C)o4)nc3)c(F)c2)C(=O)O1 [Exmp. 137, (S)-[N-3-(4-(2-(5-methyl-(1,3,4)-oxadiazol-2-yl)-pyridin-5-yl)-3-fluorophenyl)-2-oxo-5-oxazolidinyl]methyl acetamide]
- Antibacterial Activity (MIC50) VRE [1]: 0.2 µg/mL
- Antibacterial Activity (MIC50) MRSA [2]: 0.39 µg/mL
- Antibacterial Activity (MIC50) ATCC 27294 [3]: 0.1 µg/mL
- Antibacterial Activity (MIC50) Influenzae [4]: 3.13 µg/mL

Structure (SMILES): CO[C@H]1/C=C/O[C@@]2(C)Oc3c(C)c(O)c4c(O)c(c(/C=N/N5CCN(C)CC5)c(O)c4c3C2=O)NC(=O)/C(C)=C\C=C\[C@H](C)[C@H](O)[C@@H](C)[C@@H](O)[C@@H](C)[C@H](OC(C)=O)[C@@H]1C [Rifampin, reference compound]
- MIC50 [3]: 0.2 µg/mL (≈ 0.243 µM)

Structure (SMILES): CC(=O)NC[C@H]1CN(c2ccc(-c3ccc(-c4nnnn4C)nc3)c(F)c2)C(=O)O1 [Exmp. 139, (S)-[N-3-(4-(2-(1-methyl-5-tetrazolyl)-pyridin-5-yl)-3-fluorophenyl)-2-oxo-5-oxazolidinyl]methyl acetamide]
- Antibacterial Activity (MIC50) VRE [1]: 0.2 µg/mL
- Antibacterial Activity (MIC50) MRSA [2]: 0.78 µg/mL
- Antibacterial Activity (MIC50) ATCC 27294 [3]: 0.1 µg/mL
- Antibacterial Activity (MIC50) Influenzae [4]: 3.13 µg/mL

Structure (SMILES): CC(=O)NC[C@H]1CN(c2ccc(N3CCOCC3)c(F)c2)C(=O)O1 [Example U-100766, reference compound]
- MIC50 ([1]; Enterococcus, VRE, read-out: Antibacterial Activity (MIC50) VRE): 1.56 µg/mL (≈ 4.62 µM)
- MIC50 ([2]; Staphylococcus aureus, MRSA, read-out: Antibacterial Activity (MIC50) MRSA): 3.13 µg/mL (≈ 9.28 µM)
- MIC50 [3]: 1.56 µg/mL (≈ 4.62 µM)
- MIC50 ([4]; Haemophilus influenzae): 25 µg/mL (≈ 74.1 µM)

Structure (SMILES): CC(=O)NC[C@H]1CN(c2ccc(-c3ccc(-n4cnnn4)nc3)c(F)c2)C(=O)O1 [Exmp. 136, (S)-(N-3-(4-(2-(1-tetrazolyl)-pyridin-5-yl)-3-fluorophenyl)-2-oxo-5-oxazolidinyl)methyl acetamide]
- Antibacterial Activity (MIC50) VRE [1]: 0.2 µg/mL
- Antibacterial Activity (MIC50) MRSA [2]: 0.78 µg/mL
- Antibacterial Activity (MIC50) ATCC 27294 [3]: 0.1 µg/mL
- Antibacterial Activity (MIC50) Influenzae [4]: 12.5 µg/mL

Structure (SMILES): CC(=O)NC[C@H]1CN(c2ccc(-c3ccc(-c4noc(C)n4)nc3)c(F)c2)C(=O)O1 [Exmp. 138, (S)-[N-3-(4-(2-(5-methyl-(1,2,4)-oxadiazol-3-yl)pyridin-5-yl)-3-fluorophenyl)-2-oxo-5-oxazolidinyl]methyl acetamide]
- Antibacterial Activity (MIC50) VRE [1]: 0.39 µg/mL
- Antibacterial Activity (MIC50) MRSA [2]: 0.78 µg/mL
- Antibacterial Activity (MIC50) ATCC 27294 [3]: 0.1 µg/mL
- Antibacterial Activity (MIC50) Influenzae [4]: 3.13 µg/mL

Structure (SMILES): CC(=O)NC[C@H]1CN(c2ccc(-c3ccc(-c4nnn(C)n4)nc3)c(F)c2)C(=O)O1 [Exmp. 140, (S)-[N-3-(4-(2-(2-methyl-5-tetrazolyl)-pyridin-5-yl)-3-fluorophenyl)-2-oxo-5-oxazolidinyl]methyl acetamide]
- Antibacterial Activity (MIC50) VRE [1]: 0.2 µg/mL
- Antibacterial Activity (MIC50) MRSA [2]: 0.78 µg/mL
- Antibacterial Activity (MIC50) ATCC 27294 [3]: 0.1 µg/mL
- Antibacterial Activity (MIC50) Influenzae [4]: 12.5 µg/mL

Structure (SMILES): CC(=O)NC[C@H]1CN(c2ccc(-c3ccc(N4CCOC4=O)nc3)c(F)c2)C(=O)O1 [Exmp. 143, (S)-[N-3-(4-(2-(2-oxo-(1,3)-oxazolidin-3-yl)-pyridin-5-yl)-3-fluorophenyl)-2-oxo-5-oxazolidinyl]methyl acetamide]
- Antibacterial Activity (MIC50) VRE [1]: 0.2 µg/mL
- Antibacterial Activity (MIC50) MRSA [2]: 0.78 µg/mL
- Antibacterial Activity (MIC50) ATCC 27294 [3]: 0.1 µg/mL
- Antibacterial Activity (MIC50) Influenzae [4]: 1.56 µg/mL
